# Experiments:
# [1] = Anorectic activity, body weight and carcass analysis in mammals (summary statements); type: in vivo
# [2] = Body weight and food intake in meal-fed rats, oral administration, 17 day study (Example 21); type: in vivo, Charles River female rats; conditions: 17 days
# Method: (§1) Two month old Charles River female rats (Charles River Breeding Laboratories, Wilmington, Mass.) were individually housed in wire-bottomedcages in a temperature-regulated (22° C.) light-controlled room (12 hr light, 6 a.m. to 6 p.m. and 12 hr dark, 6 p.m. to 6 a.m.). […] On the 8th day, the animals were administered water or (-)-threo-chlorocitric acid at the indicated concentration by oral intubation 30 min before the 3 hr meal. Treatment was continued for 17 days. Food cups were weighed immediately after the meal. The amount of body weight gained and food consumed during the period was determined.
# [3] = Food consumption of three diets in meal-fed rats (Example 15); type: in vivo, Charles River female rats; conditions: mean ± S.E.
# Method: Charles River female rats (Charles River Breeding Laboratories, Wilmington, Mass.), weighing 170 to 200 g, were individually housed in wire-bottomed cages in a temperature-regulated (22° C.) light-controlled room (12 hr light, 6 a.m. to 6 p.m. and 12 hr dark, 6 p.m. to 6 a.m.). Animals were fasted 48 hr, then meal-fed the indicated diets from 8 to 11 a.m. Following 5 to 12 days alimentation on the meal-feeding regimen, rats were dosed with the appropriate compounds orally by intubation 1/2 hr before the 3 hr meal. Food cups were weighed immediately after the 1st, 2nd and 3rd hr of the meal. The control groups consisted of 8 to 10 rats and the experimental group considered of 5 to 6 rats.
# [4] = Body weight and food intake in meal-fed rats, 16 day study (Example 19); type: in vivo, Charles River female rats; conditions: 16 days
# Method: Two month old Charles River female rats (Charles River Breeding Laboratories, Wilmington, Mass.) were individually housed in wire-bottomedcages in a temperature-regulated (22° C.) light-controlled room (12 hr light, 6 a.m. to 6 p.m. and 12 hr dark, 6 p.m. to 6 a.m.). […] (1) control, (2) (-)-threo-chlorocitric acid (1.0 mmoles/kg, 227 mg/kg) administered by oral intubation 30 min before the 3 hr meal, and (3) (-)-threo-chlorocitric acid (1.1 mmoles/kg, 250 mg/kg) as a dietary admixture for the 3 hr meal. Treatment was continued for 16 days. The amount of body weight gained and food consumed during the study were determined.
# [5] = Total body fat in meal-fed rats, oral administration, 17 day study (Example 22); type: in vivo, Charles River female rats; conditions: 17 days
# Method: as §1, with “After 17 days” for “The amount”, “treatment, rats were killed by decapitation” for “body weight gained”, “blood” for “food consumed during the period”, “removed. […] C. Sullivan, et al, Am. J. Clinical Nutrition, 30 767 (1977). […] Total carcass and lipid data are expressed in grams and percentages of carcass weight.” for “determined.”
# [6] = Body composition of meal-fed rats, 16 day study (Example 20); type: in vivo, Charles River female rats; conditions: 16 days
# Method: Two month old Charles River female rats (Charles River Breeding Laboratories, Wilmington, Mass.) were individually housed in wire-bottomedcages in a temperature-regulated (22° C.) light-controlled room (12 hr light, 6 a.m. to 6 p.m. and 12 hr dark, 6 p.m. to 6 a.m.). […] (1) control, (2) (-)-threo-chlorocitric acid (1.0 mmoles/kg, 227 mg/kg) administered by oral intubation 30 min before the 3 hr meal, and (3) (-)-threo-chlorocitric acid (1.1 mmoles/kg, 250 mg/kg as a dietary admixture for the 3 hr meal. Treatment was continued for 16 days. After 16 days of treatment, rats were killed by decapitation and blood was removed. […] C. Sullivan, et al, Am. J. Clinical Nutrition, 30 767 (1977). […] Total carcass lipid data are expressed in grams of percentages of carcass weight. An aliquot of saponified carcass extract was neutralized and total carcass nitrogen was determined using the Kjeldahl procedure described in "Hawks" Physiological Chemistry," B. L. Oser, ed., McGraw Book Co., New York, N.Y., 1965, page 1214. Carcass protein data are expressed in grams and percentages of carcass weight.
# [7] = G-70, 0.25 mmoles (57 mg)/kg oral
# [8] = G-70, 0.50 mmoles (114 mg)/kg oral
# [9] = G-70, 1.00 mmoles (227 mg)/kg oral
# [10] = 20% Corn Oil, 0.33 mmoles (75 mg)/kg oral
# [11] = 20% Corn Oil, 0.66 mmoles (150 mg)/kg oral
# [12] = 70% Glucose, 0.33 mmoles (75 mg)/kg oral
# [13] = 70% Glucose, 0.66 mmoles (150 mg)/kg oral
# [14] = Chow, 0.33 mmoles (75 mg)/kg oral
# [15] = Chow, 0.66 mmoles (150 mg)/kg oral
# [16] = dietary admixture, 1.1 mmoles (250 mg)/kg/day
# [17] = oral intubation, 1.0 mmoles (227 mg)/kg/day
# [18] = G-70, 0.05 mmoles (114 mg)/kg oral (so in the source)
# [19] = dietary admixture, 1.1 mmoles (250 mg)/kg
# [20] = oral intubation, 1.0 mmoles (227 mg)/kg
smiles,measurement,setting,value
"O=C(O)C[C@@](O)(C(=O)O)[C@@H](Cl)C(=O)O [(-)-threo-Chlorocitric acid, (-)-threo-chlorocitric acid]",anorectic activity as measured by reduction in food consumption,"[1]; acute meal-fed assay utilizing three diets and pyramiding dose studies, compared with hydroxycitric acid",significantly more active
same,carcass analysis: origin of weight loss,[1]; chronic studies,weight loss was due to reduction in body lipids
same,appetite suppression and reduced body weight gain,"[1]; short- and long-term chronic studies, compared with hydroxycitric acid or citric acid",suppressed appetite and reduced body weight gain in mammals more efficaciously than hydroxycitric acid or citric acid
same,CBWG (cumulative body weight gain),[2]; [7],12 ± 4 g
same,CFC (cumulative food consumption),[2]; [7],209 ± 10 g
same,FBW (final body weight),[2]; [7],211 ± 7 g
same,CBWG (cumulative body weight gain),[2]; [8],-6 ± 6 g
same,CFC (cumulative food consumption),[2]; [8],176 ± 9 g
same,FBW (final body weight),[2]; [8],188 ± 7 g
same,CBWG (cumulative body weight gain),[2]; [9],-29 ± 6 g
same,CFC (cumulative food consumption),[2]; [9],153 ± 4 g
same,FBW (final body weight),[2]; [9],169 ± 6 g
same,"Food intake, 1st hr",[3]; [10],4.0 ± 0.6 g
same,"Food intake, 2nd hr",[3]; [10],1.6 ± 1.1 g
same,"Food intake, 3rd hr",[3]; [10],1.3 ± 0.5 g
same,"Food intake, Total",[3]; [10],6.8 ± 1.6 g
same,"Food intake, 1st hr",[3]; [11],3.6 ± 0.6 g
same,"Food intake, 2nd hr",[3]; [11],2.2 ± 0.4 g
same,"Food intake, 3rd hr",[3]; [11],1.3 ± 0.4 g
same,"Food intake, Total",[3]; [11],7.1 ± 0.9 g
same,"Food intake, 1st hr",[3]; [12],2.2 ± 0.5 g
same,"Food intake, 2nd hr",[3]; [12],2.2 ± 0.5 g
same,"Food intake, 3rd hr",[3]; [12],3.8 ± 0.4 g
same,"Food intake, Total",[3]; [12],8.2 ± 1.1 g
same,"Food intake, 1st hr",[3]; [13],2.7 ± 0.4 g
same,"Food intake, 2nd hr",[3]; [13],1.7 ± 0.3 g
same,"Food intake, 3rd hr",[3]; [13],2.3 ± 0.5 g
same,"Food intake, Total",[3]; [13],6.7 ± 0.7 g
same,"Food intake, 1st hr",[3]; [14],4.2 ± 1.4 g
same,"Food intake, 2nd hr",[3]; [14],1.6 ± 0.4 g
same,"Food intake, 3rd hr",[3]; [14],2.3 ± 0.7 g
same,"Food intake, Total",[3]; [14],8.1 ± 2.1 g
same,"Food intake, 1st hr",[3]; [15],3.6 ± 0.9 g
same,"Food intake, 2nd hr",[3]; [15],1.4 ± 0.2 g
same,"Food intake, 3rd hr",[3]; [15],1.9 ± 0.4 g
same,"Food intake, Total",[3]; [15],6.9 ± 1.2 g
same,CBWG (cumulative body weight gain),[4]; [16],-8 ± 6 g
same,CFC (cumulative food consumption),[4]; [16],157 ± 9 g
same,FBW (final body weight),[4]; [16],184 ± 8 g
same,CBWG (cumulative body weight gain),[4]; [17],-27 ± 4 g
same,CFC (cumulative food consumption),[4]; [17],139 ± 6 g
same,FBW (final body weight),[4]; [17],163 ± 5 g
same,"Carcass Lipid (% carcass), % of control",[5]; [18],82 % of control
same,"Carcass Lipid total, % of control",[5]; [18],67 % of control
same,"Carcass Lipid, % carcass",[5]; [18],4.43 ± 0.56 % carcass
same,"Carcass Lipid, total",[5]; [18],7.85 ± 1.03 g
same,Carcass Weight,[5]; [18],177 ± 2 g
same,"Carcass Lipid (% carcass), % of control",[5]; [7],84 % of control
same,"Carcass Lipid total, % of control",[5]; [7],76 % of control
same,"Carcass Lipid, % carcass",[5]; [7],4.58 ± 0.09 % carcass
same,"Carcass Lipid, total",[5]; [7],8.98 ± 0.30 g
same,Carcass Weight,[5]; [7],196 ± 4 g
same,"Carcass Lipid (% carcass), % of control",[5]; [9],64 % of control
same,"Carcass Lipid total, % of control",[5]; [9],50 % of control
same,"Carcass Lipid, % carcass",[5]; [9],3.48 ± 0.68 % carcass
same,"Carcass Lipid, total",[5]; [9],5.95 ± 1.28 g
same,Carcass Weight,[5]; [9],169 ± 6 g
same,"Carcass Lipid, % of carcass weight",[6]; [19],4.01 ± 0.45 % of carcass weight
same,"Carcass Lipid, total",[6]; [19],7.01 ± 0.92 g
same,"Carcass Nitrogen, % of carcass weight",[6]; [19],4.10 ± 0.14 % of carcass weight
same,"Carcass Nitrogen, total",[6]; [19],7.16 ± 0.29 g
same,Carcass Weight,[6]; [19],176 ± 8 g
same,"Carcass Lipid, % of carcass weight",[6]; [20],1.94 ± 0.13 % of carcass weight
same,"Carcass Lipid, total",[6]; [20],2.74 ± 0.19 g
same,"Carcass Nitrogen, % of carcass weight",[6]; [20],4.27 ± 0.22 % of carcass weight
same,"Carcass Nitrogen, total",[6]; [20],6.57 ± 0.30 g
same,Carcass Weight,[6]; [20],155 ± 4 g
